Measurements from PMC8526855, “Gambogenic Acid Induces Endoplasmic Reticulum Stress in Colorectal Cancer via the Aurora A Pathway” (Frontiers in Cell and Developmental Biology, 2021).

Target: T1, Aurora A (Homo sapiens, UniProt O14965)
T1 construct: gene AURKA
T1 sequence (O14965 1-403): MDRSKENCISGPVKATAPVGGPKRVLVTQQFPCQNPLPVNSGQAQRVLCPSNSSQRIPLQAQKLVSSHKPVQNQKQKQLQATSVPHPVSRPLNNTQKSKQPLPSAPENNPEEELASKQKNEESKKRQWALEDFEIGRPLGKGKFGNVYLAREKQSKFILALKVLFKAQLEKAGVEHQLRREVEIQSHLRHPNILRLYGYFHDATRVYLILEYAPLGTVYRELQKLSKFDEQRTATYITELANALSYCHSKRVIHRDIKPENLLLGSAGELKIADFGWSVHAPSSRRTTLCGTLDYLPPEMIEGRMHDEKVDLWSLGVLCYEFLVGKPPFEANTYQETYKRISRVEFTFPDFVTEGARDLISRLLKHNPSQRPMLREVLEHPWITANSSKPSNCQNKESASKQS
Experiment: microfluidic mobility shift kinase assay; also cellular thermal shift assay (Aurora A levels reduced with GNA at […]°C)
Format: biochemical

CC(C)=CCC/C(C)=C/Cc1c(O)c(CC=C(C)C)c2c(c1O)C(=O)C1=C[C@@H]3C[C@H]4C(C)(C)O[C@@](C/C=C(/C)C(=O)O)(C3=O)[C@@]14O2 [GNA, gambogenic acid]
IC50: 1420 nM
